We go through 11 compounds from patent US11834450B2, “Compounds having ((3-nitrophenyl)sulfonyl)acetamide as BCL-2 inhibitors” (Eil Therapeutics, Inc., priority 2021, dated 2023).

For one data set, the system named is RS4-11 cells. Briefly: Cell viability assay RS4-11 (CellTiter-Glo). In kind it is cell-based. Particulars: Homo sapiens, 72 h; RS4-11 cells, 3 days, CellTiter-Glo; read-out: RS4-11 (CC50 code). As for the experimental part:
(§1) Assay Condition: Used culture medium for HEK293-DMEM (PanEco, Cat #C420), for the rest of the cell lines—culture medium RPMI-1640 (PanEco, Cat #C363).
(§2) Assay Procedure: Compounds were prepared as 200× stocks with serial dilution in 100% DMSO with a final concentration of 1×. Dispersed 40 μl in 384-well plates at a concentration of 2000 cells per well for HEK293 and at a concentration of 4000 cells per well for the rest of the cell lines using a robotic station Biomek (Beckman). Before adding compounds, the cells were incubated at 37° C. (HEK293 were incubated for a day before adding compounds).
(§3) A dilution plate was prepared by pouring 78 μl of the appropriate culture medium using a robotic station Biomek (Beckman). Sequentially, using a robotic station, 2 μl of substances were taken and added to 78 μl of culture medium (dilution of compounds 40×). Took from there 10 μl and added to the plates to the cells (dilution of compounds 5×). The plates were incubated for 3 days at a temperature 37° C. After 3 days, 10 μl of CellTiter-Glo (Promega) was added to the cells and the luminescence was measured.
Background: Cellular ATP, detected with luciferase, serves as a proxy for viable cell number.

Another data set relates to MOLT-4 cells. Briefly: Cell viability assay MOLT-4 (CellTiter-Glo). Format: cell-based. To be noted: Homo sapiens, 72 h; MOLT-4 cells, 3 days, CellTiter-Glo; read-out: MOLT-4 (CC50 code). The method, then:
as §1, §2, §3

Data set [1] in a line: Cell viability assay HEK293 (CellTiter-Glo). In kind it is cell-based. To be noted: human, HEK293 cells, read-out: HEK293 (CC50 code). As for the experimental part: as §1, §2, §3
Data set [2] relates to caspase-3 and -7 activities in RS4-11 cells. Briefly: Cas-3/7 activation (Caspase-Glo 3/7) in RS4-11 cells. Particulars: Homo sapiens, 3.5 h at 37° C. and 30 min at r.t., read-out: Cas-3/7 (EC50 code). In kind it is cell-based. The method, then: Assay Principle: The Caspase-Glo 3/7 Assay is homogeneous, luminescent assay that measures caspase-3 and -7 activities. The assay provides a luminogenic caspase-3/7 substrate, which contains the tetrapeptide sequence DEVD, in a reagent optimized for caspase activity.
Assay Procedure: Incubate RS4-11 cells with varying concentrations of test compounds for 3.5 h in a humidified incubator at 37° C. and 5% CO2 and 30 min at r.t. Add 15 μl Caspase-Glo reagent to each well and incubate the plate for 30 min at r.t. Read on ClarioStar Plus instrument.
Materials: Promega Caspase-Glo (Promega, #8212); Frozen RS4-11 cells; 384-well white plate (Corning, #3570).
Instrumentation: ClarioStar Plus; Biomek FX for liquid handling (Beckman Coulter).

In a further data set the target is T1, BCL-XL (Homo sapiens, UniProt Q07817).
T1 construct: purchased BPS Bioscience #50223
T1 sequence (Q07817 whole entry): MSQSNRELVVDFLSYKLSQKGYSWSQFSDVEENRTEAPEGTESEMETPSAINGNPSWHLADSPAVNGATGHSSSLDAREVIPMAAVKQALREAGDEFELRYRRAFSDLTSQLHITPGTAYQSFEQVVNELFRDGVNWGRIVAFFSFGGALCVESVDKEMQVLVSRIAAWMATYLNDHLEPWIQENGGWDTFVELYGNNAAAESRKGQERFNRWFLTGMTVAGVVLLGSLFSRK
Briefly: BCL-XL TR-FRET Assay (primary PPI inhibition). Format: binding. Particulars: 60 min incubation; read-out: BCLxL (IC50 code, BCL-XL TR-FRET). The method, then:
BCL-XL TR-FRET Assay (BPS Bioscience, #50223) Assay Condition: The following assay concentrations and times were used: 10.5 ng BCL-XL, 5 ul of 1:100 anti-His Tb-labeled donor, 5 ul of 1:100 Dye-labeled acceptor, 5 ul of 1:80 BCL-XL Peptide Ligand, and 2 ul of test compound, with 60 min incubation time. The results of the assay were read using a Clariostar (BMG Labtech) plate reader with the following parameters: TR FRET, 340 ex/620 and 665 em; 60 μsec Delay; and 500 μsec integration.
A general note: TR-FRET usually uses a lanthanide donor and a delayed reading to cut background.

For another data set, the target named is T2, BCL-2 (Homo sapiens, UniProt P10415).
T2 construct: purchased BPS Bioscience #50222
T2 sequence (P10415 whole entry): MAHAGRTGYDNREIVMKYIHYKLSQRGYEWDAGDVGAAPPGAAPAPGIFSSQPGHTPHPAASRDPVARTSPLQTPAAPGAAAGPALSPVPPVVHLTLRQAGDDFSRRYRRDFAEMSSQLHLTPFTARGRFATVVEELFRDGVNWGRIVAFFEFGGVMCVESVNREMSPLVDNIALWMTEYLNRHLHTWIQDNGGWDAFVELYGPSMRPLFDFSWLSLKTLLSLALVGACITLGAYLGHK
Briefly: BCL-2 TR-FRET Assay (primary PPI inhibition). Format: binding. Particulars: 60 min incubation; read-out: BCL2 (IC50 code, BCL-2 TR-FRET).

One may read the CC50 as the concentration that lowers cell viability or growth by half. As a reminder, the IC50 is the concentration needed to halve the response being measured.

`CC(C)C(=O)N1C[C@H](CN2CCN(c3ccc(C(=O)NS(=O)(=O)c4ccc(NCC5CCOCC5)c([N+](=O)[O-])c4)c(Oc4cnc5[nH]ccc5c4)c3)CC2)[C@@H](c2ccc(Cl)cc2)C1` [Compound 30, 4-[4-[[(3S,4S)-4-(4-chlorophenyl)-1-(2-methylpropanoyl)pyrrolidin-3-yl]methyl]piperazin-1-yl]-N-[3-nitro-4-(tetrahydropyran-4-ylmethylamino)phenyl]sulfonyl-2-(1H-pyrrolo[2,3-b]pyridin-5-yloxy)benzamide]: the cytotoxic concentration (CC50) was more than 0.2 µM in the data set on RS4-11 cells and 2 to 10 µM in the data set on MOLT-4 cells. The CC50 at 3 days in data set [1] is more than 25 µM. In addition, the EC50 in data set [2] is more than 0.25 µM.

On to `CC1=CC[C@H](CN2CCN(c3ccc(C(=O)NS(=O)(=O)c4ccc(NCC5CCOCC5)c([N+](=O)[O-])c4)c(Oc4cnc5[nH]ccc5c4)c3)CC2)[C@@H](c2ccc(Cl)cc2)C1` [Compound 31, 4-[4-[[(1S,6S)-6-(4-chlorophenyl)-4-methyl-cyclohex-3-en-1-yl]methyl]piperazin-1-yl]-N-[3-nitro-4-(tetrahydropyran-4-ylmethylamino)phenyl]sulfonyl-2-(1H-pyrrolo[2,3-b]pyridin-5-yloxy)benzamide], for which the cytotoxic concentration (CC50) is 0.1 to 0.2 µM in the data set with RS4-11 cells and 2 to 10 µM in the data set with MOLT-4 cells. In data set [1], the CC50 at 3 days is 10 to 25 µM. Moreover, the EC50 in data set [2] was 0.1 to 0.25 µM.

With `O=C(NS(=O)(=O)c1ccc(NCC2CCOCC2)c([N+](=O)[O-])c1)c1ccc(N2CCC(CN3CCCCC3c3ccc(Cl)cc3)CC2)cc1Oc1cncc(CO)c1` (centres unmarked) [Compound 64, 4-[4-[[2-(4-chlorophenyl)-1-piperidyl]methyl]-1-piperidyl]-2-[[5-(hydroxymethyl)-3-pyridyl]oxy]-N-[3-nitro-4-(tetrahydropyran-4-ylmethylamino)phenyl]sulfonyl-benzamide], the half-maximal inhibitory concentration (IC50) on BCL-XL was more than 4 µM; on BCL-2 it was more than 0.05 µM. In addition, the half-maximal cytotoxic concentration (CC50) in the data set with RS4-11 cells is more than 0.2 µM; in the data set on MOLT-4 cells it was more than 10 µM. In data set [1], the cytotoxic concentration (CC50) at 3 days was 10 to 25 µM.

Regarding `Cn1ncc(Oc2cc(N3CCC(CN4CCCCC4c4ccc(Cl)cc4)CC3)ccc2C(=O)NS(=O)(=O)c2ccc(NCC3CCOCC3)c([N+](=O)[O-])c2)cc1=O` (centres unmarked) [Compound 65, 4-[4-[[2-(4-chlorophenyl)-1-piperidyl]methyl]-1-piperidyl]-2-(1-methyl-6-oxo-pyridazin-4-yl)oxy-N-[3-nitro-4-(tetrahydropyran-4-ylmethylamino)phenyl]sulfonyl-benzamide], the values for the IC50 at BCL-XL and on BCL-2 were more than 4 µM and more than 0.05 µM, respectively. Also, the 50% cytotoxic concentration (CC50) with RS4-11 cells is more than 0.2 µM; in the data set with MOLT-4 cells it was more than 10 µM. In addition, the CC50 at 3 days in data set [1] lay within 10 to 25 µM.

On to `O=C(NS(=O)(=O)c1ccc(NCC2CCOCC2)c([N+](=O)[O-])c1)c1ccc(N2CCN(C[C@@H]3CC(F)CN3c3ccc(Cl)cc3)CC2)cc1Oc1cnc2[nH]ccc2c1` (stereo partly drawn) [Compound 66, 4-[4-[[(2S)-1-(4-chlorophenyl)-4-fluoro-pyrrolidin-2-yl]methyl]piperazin-1-yl]-N-[3-nitro-4-(tetrahydropyran-4-ylmethylamino)phenyl]sulfonyl-2-(1H-pyrrolo[2,3-b]pyridin-5-yloxy)benzamide], for which the figures for the IC50 on BCL-XL and at BCL-2 were more than 4 µM and more than 0.05 µM, respectively. In addition, the CC50 in the data set with RS4-11 cells was more than 0.2 µM; in the data set with MOLT-4 cells, 2 to 10 µM. For the same compound, the cytotoxic concentration (CC50) at 3 days in data set [1] is 10 to 25 µM.

For the compound `O=C(NS(=O)(=O)c1ccc(NCC2CCOCC2)c([N+](=O)[O-])c1)c1ccc(N2CCN(CC3CCC=CC3c3ccc(Cl)cc3)CC2)cc1Oc1cnc2[nH]ccc2c1` (centres unmarked) [Compound 67, 4-[4-[[2-(4-chlorophenyl)cyclohex-3-en-1-yl]methyl]piperazin-1-yl]-N-[3-nitro-4-(tetrahydropyran-4-ylmethylamino)phenyl]sulfonyl-2-(1H-pyrrolo[2,3-b]pyridin-5-yloxy)benzamide], the IC50 at BCL-2 lay within 0.01 to 0.05 µM. Further, in data set [2], the EC50 was more than 0.25 µM.

As for `O=C(NS(=O)(=O)c1ccc(NCC2CCOCC2)c([N+](=O)[O-])c1)c1ccc(N2CCN(C[C@H]3[C@H](c4ccc(Cl)cc4)[C@@H]4C=C[C@H]3C4)CC2)cc1Oc1cnc2[nH]ccc2c1` [Compound 68, 4-[4-[[(1R,2R,3R,4S)-3-(4-chlorophenyl)-2-bicyclo[2.2.1]hept-5-enyl]methyl]piperazin-1-yl]-N-[3-nitro-4-(tetrahydropyran-4-ylmethylamino)phenyl]sulfonyl-2-(1H-pyrrolo[2,3-b]pyridin-5-yloxy)benzamide], the values for the IC50 at BCL-XL and on BCL-2 were more than 4 µM and more than 0.05 µM, respectively. Further, the values for the half-maximal cytotoxic concentration (CC50) in the data set on RS4-11 cells and with MOLT-4 cells were more than 0.2 µM and 2 to 10 µM, respectively. Further, the CC50 at 3 days in data set [1] fell in the range of 10 to 25 µM.

As for `O=C1CC[C@H](CN2CCN(c3ccc(C(=O)NS(=O)(=O)c4ccc(NCC5CCOCC5)c([N+](=O)[O-])c4)c(Oc4cnc5[nH]ccc5c4)c3)CC2)[C@@H](c2ccc(Cl)cc2)N1` [Compound 70, 4-[4-[[(2S,3R)-2-(4-chlorophenyl)-6-oxo-3-piperidyl]methyl]piperazin-1-yl]-N-[3-nitro-4-(tetrahydropyran-4-ylmethylamino)phenyl]sulfonyl-2-(1H-pyrrolo[2,3-b]pyridin-5-yloxy)benzamide], the results for the IC50 on BCL-XL and on BCL-2 were more than 4 µM and more than 0.05 µM, respectively. For the same compound, the half-maximal cytotoxic concentration (CC50) in the data set with RS4-11 cells is more than 0.2 µM; in the data set with MOLT-4 cells, more than 10 µM. The 50% cytotoxic concentration (CC50) at 3 days in data set [1] lay in the range of 10 to 25 µM.

Consider `O=C(NS(=O)(=O)c1ccc(NCCCN2CCOCC2)c([N+](=O)[O-])c1)c1ccc(N2CCC(CN3CCCCC3c3ccc(Cl)cc3)CC2)cc1Oc1cnc2[nH]ccc2c1` (centres unmarked) [Compound 73, 4-[4-[[2-(4-chlorophenyl)-1-piperidyl]methyl]-1-piperidyl]-N [4-(3-morpholinopropylamino)-3-nitro-phenyl]sulfonyl-2-(1H-pyrrolo[2,3-b]pyridin-5-yloxy)benzamide], for which the figures for the IC50 at BCL-XL and at BCL-2 were 2 to 4 µM and 0.01 to 0.05 µM, respectively. The values for the half-maximal cytotoxic concentration (CC50) with RS4-11 cells and with MOLT-4 cells were more than 0.2 µM and 2 to 10 µM, respectively. In addition, in data set [1], the 50% cytotoxic concentration (CC50) at 3 days lay within 10 to 25 µM.

`C[C@]1(O)CC[C@H](CN2CCN(c3ccc(C(=O)NS(=O)(=O)c4ccc(NCC5CCOCC5)c([N+](=O)[O-])c4)c(Oc4cnc5[nH]ccc5c4)c3)CC2)[C@@H](c2ccc(Cl)cc2)C1` [Compound 74, 4-[4-[[(1S,2S,4S)-2-(4-chlorophenyl)-4-hydroxy-4-methyl-cyclohexyl]methyl]piperazin-1-yl]-N-[3-nitro-4-(tetrahydropyran-4-ylmethylamino)phenyl]sulfonyl-2-(1H-pyrrolo[2,3-b]pyridin-5-yloxy)benzamide]: the IC50 at BCL-XL lay in the range of 2 to 4 µM; on BCL-2 it was 0.01 to 0.05 µM. Also, the CC50 in the data set with RS4-11 cells is more than 0.2 µM; in the data set on MOLT-4 cells it was 2 to 10 µM. The CC50 at 3 days in data set [1] lay within 10 to 25 µM.

Regarding `O=C1CC[C@]2(c3ccc(Cl)cc3)C[C@@]2(CN2CCN(c3ccc(C(=O)NS(=O)(=O)c4ccc(NCC5CCOCC5)c([N+](=O)[O-])c4)c(Oc4cnc5[nH]ccc5c4)c3)CC2)C1` [Compound 77, 4-[4-[[(1R,6R)-6-(4-chlorophenyl)-3-oxo-norcaran-1-yl]methyl]piperazin-1-yl]-N-[3-nitro-4-(tetrahydropyran-4-ylmethylamino)phenyl]sulfonyl-2-(1H-pyrrolo[2,3-b]pyridin-5-yloxy)benzamide], the IC50 on BCL-XL is more than 4 µM; on BCL-2 it was more than 0.05 µM. The cytotoxic concentration (CC50) is more than 0.2 µM in the data set with RS4-11 cells and 2 to 10 µM with MOLT-4 cells. In addition, in data set [1], the 50% cytotoxic concentration (CC50) at 3 days lay in the range of 10 to 25 µM.
